System: 616215-338-R-J1-PDC complex spheroid viability
Test: Anticancer human tumor 616215-338-R-J1-PDC patient-derived colon adenocarcinoma cell line growth inhibition [RAS]
Conditions: for viability, T/C: stronger effect = lower value
Method in brief: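 Agents were tested in combination matrices in half-log decrements from a top concentration at or near clinical Cmax (10 microM if undetermined). Targets were multi-cell spheroids of tumour lines plus HUVEC and MSC stromal cells.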
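Note: spheroids exposed to agents for seven days before viability readout.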
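Throughout, for viability, T/C: 100% = DMSO vehicle control viability.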

C=CC(=O)Nc1cc(Nc2nccc(-c3cn(C)c4ccccc34)n2)c(OC)cc1N(C)CCN(C)C + C=CC(=O)N1CCN(c2nc(OCC3CCCN3C)nc3c(F)c(-c4nc(N)cc(C)c4C(F)(F)F)c(Cl)cc23)C(C)C1
IC50 (curve of first compound, second compound 0.00316 µM): > 1 µM
IC50 (curve of first compound, second compound 0.01 µM): > 1 µM
IC50 (curve of first compound, second compound 0.0316 µM): > 1 µM
IC50 (curve of first compound, second compound 0.1 µM): > 1 µM
IC50 (curve of first compound, second compound 0.316 µM): > 1 µM
IC50 (curve of first compound, second compound 1 µM): > 1 µM
viability, T/C (second compound 0.00316 µM, first compound 0.00316 µM): 95.8%
viability, T/C (second compound 0.00316 µM, first compound 0.01 µM): 105%
viability, T/C (second compound 0.00316 µM, first compound 0.0316 µM): 107%
viability, T/C (second compound 0.00316 µM, first compound 0.1 µM): 104%
viability, T/C (second compound 0.00316 µM, first compound 0.316 µM): 106%
viability, T/C (second compound 0.00316 µM, first compound 1 µM): 85.6%
viability, T/C (second compound 0.01 µM, first compound 0.00316 µM): 93%
viability, T/C (second compound 0.01 µM, first compound 0.01 µM): 108%
viability, T/C (second compound 0.01 µM, first compound 0.0316 µM): 99%
viability, T/C (second compound 0.01 µM, first compound 0.1 µM): 101%
viability, T/C (second compound 0.01 µM, first compound 0.316 µM): 108%
viability, T/C (second compound 0.01 µM, first compound 1 µM): 101%
viability, T/C (second compound 0.0316 µM, first compound 0.00316 µM): 101%
viability, T/C (second compound 0.0316 µM, first compound 0.01 µM): 110%
viability, T/C (second compound 0.0316 µM, first compound 0.0316 µM): 107%
viability, T/C (second compound 0.0316 µM, first compound 0.1 µM): 99.3%
viability, T/C (second compound 0.0316 µM, first compound 0.316 µM): 108%
viability, T/C (second compound 0.0316 µM, first compound 1 µM): 96%
viability, T/C (second compound 0.1 µM, first compound 0.00316 µM): 103%
viability, T/C (second compound 0.1 µM, first compound 0.01 µM): 102%
viability, T/C (second compound 0.1 µM, first compound 0.0316 µM): 88.6%
viability, T/C (second compound 0.1 µM, first compound 0.1 µM): 106%
viability, T/C (second compound 0.1 µM, first compound 0.316 µM): 128%
viability, T/C (second compound 0.1 µM, first compound 1 µM): 74.2%
viability, T/C (second compound 0.316 µM, first compound 0.00316 µM): 105%
viability, T/C (second compound 0.316 µM, first compound 0.01 µM): 98.9%
viability, T/C (second compound 0.316 µM, first compound 0.0316 µM): 99.4%
viability, T/C (second compound 0.316 µM, first compound 0.1 µM): 106%
viability, T/C (second compound 0.316 µM, first compound 0.316 µM): 109%
viability, T/C (second compound 0.316 µM, first compound 1 µM): 74.4%
viability, T/C (second compound 1 µM, first compound 0.00316 µM): 96.9%
viability, T/C (second compound 1 µM, first compound 0.01 µM): 98.3%
viability, T/C (second compound 1 µM, first compound 0.0316 µM): 91%
viability, T/C (second compound 1 µM, first compound 0.1 µM): 114%
viability, T/C (second compound 1 µM, first compound 0.316 µM): 110%
viability, T/C (second compound 1 µM, first compound 1 µM): 68.9%

CC(Nc1ccc2c(c1)OCCn1cc(N3C(=O)OCC3C(F)F)nc1-2)C(N)=O (stereo unspecified) + CCn1c(-c2cccnc2C(C)OC)c2c3cc(ccc31)N1CCOC(CC(NC(=O)C(C(C)C)N(C)C(=O)C3(F)CCN(C(=O)C#CC(C)(C)N(C)C)CC3)C(=O)N3CCCC(N3)C(=O)OCC(C)(C)C2)C1
IC50 (curve of first compound, second compound 0.000949 µM): > 10 µM
IC50 (curve of first compound, second compound 0.003 µM): > 10 µM
IC50 (curve of first compound, second compound 0.00949 µM): > 10 µM
IC50 (curve of first compound, second compound 0.03 µM): > 10 µM
IC50 (curve of first compound, second compound 0.0949 µM): > 10 µM
IC50 (curve of first compound, second compound 0.3 µM): 9.65 µM
viability, T/C (second compound 0.000949 µM, first compound 0.0316 µM): 106%
viability, T/C (second compound 0.000949 µM, first compound 0.1 µM): 112%
viability, T/C (second compound 0.000949 µM, first compound 0.316 µM): 109%
viability, T/C (second compound 0.000949 µM, first compound 1 µM): 101%
viability, T/C (second compound 0.000949 µM, first compound 3.16 µM): 93.2%
viability, T/C (second compound 0.000949 µM, first compound 10 µM): 91.9%
viability, T/C (second compound 0.003 µM, first compound 0.0316 µM): 107%
viability, T/C (second compound 0.003 µM, first compound 0.1 µM): 116%
viability, T/C (second compound 0.003 µM, first compound 0.316 µM): 103%
viability, T/C (second compound 0.003 µM, first compound 1 µM): 102%
viability, T/C (second compound 0.003 µM, first compound 3.16 µM): 99.7%
viability, T/C (second compound 0.003 µM, first compound 10 µM): 84.2%
viability, T/C (second compound 0.00949 µM, first compound 0.0316 µM): 97.5%
viability, T/C (second compound 0.00949 µM, first compound 0.1 µM): 116%
viability, T/C (second compound 0.00949 µM, first compound 0.316 µM): 109%
viability, T/C (second compound 0.00949 µM, first compound 1 µM): 114%
viability, T/C (second compound 0.00949 µM, first compound 3.16 µM): 91.5%
viability, T/C (second compound 0.00949 µM, first compound 10 µM): 78.7%
viability, T/C (second compound 0.03 µM, first compound 0.0316 µM): 95.4%
viability, T/C (second compound 0.03 µM, first compound 0.1 µM): 109%
viability, T/C (second compound 0.03 µM, first compound 0.316 µM): 98.9%
viability, T/C (second compound 0.03 µM, first compound 1 µM): 108%
viability, T/C (second compound 0.03 µM, first compound 3.16 µM): 96.4%
viability, T/C (second compound 0.03 µM, first compound 10 µM): 78.3%
viability, T/C (second compound 0.0949 µM, first compound 0.0316 µM): 123%
viability, T/C (second compound 0.0949 µM, first compound 0.1 µM): 106%
viability, T/C (second compound 0.0949 µM, first compound 0.316 µM): 103%
viability, T/C (second compound 0.0949 µM, first compound 1 µM): 92%
viability, T/C (second compound 0.0949 µM, first compound 3.16 µM): 106%
viability, T/C (second compound 0.0949 µM, first compound 10 µM): 90%
viability, T/C (second compound 0.3 µM, first compound 0.0316 µM): 102%
viability, T/C (second compound 0.3 µM, first compound 0.1 µM): 87.6%
viability, T/C (second compound 0.3 µM, first compound 0.316 µM): 94.5%
viability, T/C (second compound 0.3 µM, first compound 1 µM): 68.1%
viability, T/C (second compound 0.3 µM, first compound 3.16 µM): 103%
viability, T/C (second compound 0.3 µM, first compound 10 µM): 48.7%

CC1(C)CCC(Nc2ncc(C(F)(F)F)c(-c3c[nH]c4c(P(C)(C)=O)c(C#N)ccc34)n2)CN1 (stereo unspecified)
viability, T/C (compound 0.000949 µM): 98.8% [middle of 4 runs]
viability, T/C (compound 0.003 µM): 101% [middle of 4 runs]
viability, T/C (compound 0.00949 µM): 66.1% [middle of 4 runs]
viability, T/C (compound 0.03 µM): 40.8% [middle of 4 runs]
viability, T/C (compound 0.0949 µM): 37% [middle of 4 runs]
viability, T/C (compound 0.3 µM): 35.2% [middle of 4 runs]
IC50 (curve of compound): 20.3 nM [middle of 4 runs]

— PubChem BioAssay AID2060898 (Molecular Pharmacology Branch, DTP, NCI, 2025)
